IC50 data for 2 molecules are collected here from PMC6331714 (ChemistryOpen, 2019).

As usually defined, the IC50 is the concentration that inhibits the measured activity by half.

The target of experiment [1] is XIAP (Homo sapiens, UniProt P98170). The experiment in a line: fluorescence polarization competition with AVPFAQK. It is filed as binding. On the technique in general: Polarisation of emitted light reports the rotation of a fluorescent probe.
Experiment [2] addresses X-linked inhibitor of apoptosis protein (XIAP) BIR3 domain. The experiment in a line: fluorescence polarisation.

Chain of XIAP (P98170 241-356 limits assumed): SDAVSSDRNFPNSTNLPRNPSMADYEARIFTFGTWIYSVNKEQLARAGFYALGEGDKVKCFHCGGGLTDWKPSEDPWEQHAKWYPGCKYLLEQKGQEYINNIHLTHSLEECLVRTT

Molecule `C[C@H](N)C(=O)N[C@H]1CNC(=O)C[C@H]2CC[C@@H](C(=O)NC(c3ccccc3)c3ccccc3)N2C1=O` [ZJ-1, (5 S ,8 S ,10aR)‐5‐((S)‐2‐aminopropanamido)‐N‐benzhydryl‐2,6‐dioxodecahydropyrrolo[1,2‐a][1,5] diazocine‐8‐carboxamide] came in with an IC50 in experiment [1] of 210 nM.

As to AVPI [AVPI, N-terminal tetrapeptide binding motif of Smac/DIABLO (Ala-Val-Pro-Ile)], in experiment [2], the IC50 was 1150 nM.
